“And” between values parts separate entries of the source, which are not always exact repeats. Identical values can stand only once. “Also recorded” adds a separate entry of the source. Counter-ions that a name gives are not always drawn.
Legend:
Assay type in all cases: physicochemical
[1] = storage under ambient conditions (15° C. to 30° C.), form conversion; settings: temperature of from 15° C. to 30° C.
Description: For Free Base Form E, Free Base Form F, Free Base Form G, Free Base Form H, and Free Base Form J: two different instruments were used for characterizing the materials by XRPD. Samples were analysed dry with a Malvern Panalytical Xpert Pro diffractometer, except for Free Base Form F. Free Base Form F was analysed using a Malvern Panalytical Empyrean diffractometer.
Napsylate Salt Form C was analysed by XRPD.

[2] = stressing at 40° C./75% relative humidity (stability study, XRPD); settings: for physical stability to stressing at 40° C./75% relative humidity (RH): 7 days
[3] = water solubility, visual solubility estimation using pipet method; settings: thermodynamic from solid
[4] = estimated solubility by adding test solvent in aliquots to weighed solid, visual inspection
Description: Solubilities of the compound of Formula (I), free base, in a few solvents were estimated. The experiments were carried out by adding the test solvent in aliquots to weighed portions of solid. Whether dissolution had occurred was judged by visual inspection after addition of each solvent aliquot. Solubility numbers were calculated by dividing the weight of the sample by total amount of solvent used to dissolve the sample. The actual solubilities may be greater than the numbers calculated because of the use of solvent aliquots that were too large or because of slow dissolution rates. […] The solubility number is expressed as “greater than or equal to” if dissolution occurred on addition of the first solvent aliquot.
Solubilities of Fumarate Salt Form A are shown in Tables 8 and 9, in selected solvents and aqueous binary mixtures.
Solubilities of the compound of Formula (I), Fumarate Salt Form A, are shown in Tables 15 and 16, in selected solvents and aqueous binary mixtures.

[5] = initial physical stability evaluation at various relative humidity, room temperature, ~1 week (XRPD, Karl Fischer)
Description: In another one or more examples, Karl Fischer titrations (water content analysis) for fumarate salt(s) (e.g., Fumarate Salt Form A) were carried out using a Mettler-Toledo C20 Coulometric KF titrator. The instrument was calibrated using a Hydranal water standard containing 1% water. The titrant was a Hydranal methanol solution.
For initial physical stability evaluation, Fumarate Salt Form A was stored at various relative humidity conditions and room temperature for approximately 1 week (Table 14). Subsamples of Fumarate Salt Form A (approximately 90 mg) were weighed and placed inside relative humidity (RH) jars; after 1 week the samples were analyzed by XRPD and Karl Fisher analysis; the results are summarized in Table 14.

[6] = dynamic vapor sorption (DVS) analysis, TA Instruments Q5000, 5 to 95% RH
Description: For Fumarate Salt Form A, Dynamic vapor sorption (DVS) analysis was carried out using a TA Instruments Q5000 Dynamic Vapor Sorption analyser. The instrument was calibrated with standard weights and a sodium bromide standard for humidity. Approximately 10-25 mg of sample was loaded into a metal coated quartz pan for analysis. The sample was analysed at 25° C. with a maximum equilibration time of one hour in 10% relative humidity (RH) steps from 5 to 95% RH (adsorption cycle) and from 95 to 5% RH (desorption cycle). The movement from one step to the next occurred either after satisfying the equilibrium criterion of 0.01% weight change, or when the equilibrium criterion was not met after one hour. The percent weight change values were then calculated.

[7] = slurry of crystalline Fumarate Salt Form A in solvents, XRPD
From the text: Regarding the use of crystalline Fumarate Salt Form A in polymorph screens, crystalline Fumarate Salt Form A as a starting material was mixed with different solvents under various conditions in attempts to generate polymorphs.

[8] = heat stress on a TGA, recovered material analyzed by XRPD; settings: held ~1 minute
Description: Samples of each form were heat stressed on a TGA. Samples were heated to the specified temperature and held at that temperature for approximately 1 minute. The material was then recovered from the TGA and analyzed by XRPD.

With `CN1CCN([C@@H]2CCCN(c3cnc(C(N)=O)c(Nc4ccc(C5CCN(CC6CCN(c7ccc(C(=O)N[C@H]8CCC(=O)NC8=O)nc7)CC6)CC5)cc4)n3)C2)C1=O` [Free Base Form F] the “physical stability to ambient conditions” value [1] was “converted on drying at ambient conditions (including a temperature of from 15 °C to 30° C.) to Free Base Form J; also recorded: not physically stable” and the “physical stability to stressing at 40° C./75% relative humidity (RH)” value [2] was “not physically stable”.

For `CN1CCN([C@@H]2CCCN(c3cnc(C(N)=O)c(Nc4ccc(C5CCN(CC6CCN(c7ccc(C(=O)N[C@H]8CCC(=O)NC8=O)nc7)CC6)CC5)cc4)n3)C2)C1=O.O=C(O)/C=C/C(=O)O` [Fumarate Salt Form A], the solubility [3] was < 300 µg/mL, the “solubility” value ([4]; acetonitrile/H2O (45/55), aw 0.9, solubility without temperature) was >10000 µg/mL and the solubility ([4]; aqueous with cosolvent or surfactant or cyclodextrin, thermodynamic from solid, 1,4-dioxane/H2O (60/40), aw 1.0, solubility without temperature, read-out: Solubility) was 10000 µg/mL. For the same molecule, the solubility ([4]; aqueous with cosolvent or surfactant or cyclodextrin, thermodynamic from solid, 1,4-dioxane/H2O (95/5), aw 0.4, solubility without temperature, read-out: Solubility) was 1000 µg/mL, the solubility ([4]; aqueous with cosolvent or surfactant or cyclodextrin, thermodynamic from solid, 2-propanol/H2O (80/20), aw 0.9, at 45° C., read-out: Solubility) was > 1000 µg/mL and the solubility ([4]; aqueous with cosolvent or surfactant or cyclodextrin, thermodynamic from solid, 2-propanol/H2O (80/20), aw 0.9, solubility without temperature, read-out: Solubility) was < 1000 µg/mL. For the same molecule, the solubility ([4]; aqueous with cosolvent or surfactant or cyclodextrin, thermodynamic from solid, acetone/H2O (70/30), aw 0.85, solubility without temperature, read-out: Solubility) was 6000 µg/mL, the solubility ([4]; aqueous with cosolvent or surfactant or cyclodextrin, thermodynamic from solid, acetonitrile/H2O (45/55), aw 0.9, solubility without temperature, read-out: Solubility) was > 10000 µg/mL and the solubility ([4]; aqueous with cosolvent or surfactant or cyclodextrin, thermodynamic from solid, ethanol/H2O (70/30), aw 0.8, solubility without temperature, read-out: Solubility) was 4000 µg/mL. For the same molecule, the solubility ([4]; aqueous with cosolvent or surfactant or cyclodextrin, thermodynamic from solid, methanol/H2O (50/50), aw 0.75, solubility without temperature, read-out: Solubility) was 2000 µg/mL, the solubility ([4]; aqueous with cosolvent or surfactant or cyclodextrin, thermodynamic from solid, tetrahydrofuran/H2O (80/20), aw 1, solubility without temperature, read-out: Solubility) was > 9000 µg/mL and the solubility ([4]; organic solvent or mixture, thermodynamic from solid, 1,4-dioxane, at 60° C., read-out: Solubility) was 1000 µg/mL. The solubility ([4]; organic solvent or mixture, thermodynamic from solid, acetone, at 60° C., read-out: Solubility) was < 1000 µg/mL, the solubility ([4]; organic solvent or mixture, thermodynamic from solid, acetonitrile (ACN), at 60° C., read-out: Solubility) was < 1000 µg/mL and the solubility ([4]; organic solvent or mixture, thermodynamic from solid, dichloromethane (DCM), at 60° C., read-out: Solubility) was < 1000 µg/mL. For the same molecule, the solubility ([4]; organic solvent or mixture, thermodynamic from solid, dimethylformamide (DMF), at RT, read-out: Solubility) was > 50000 µg/mL, the solubility ([4]; organic solvent or mixture, thermodynamic from solid, ethanol (EtOH), at 60° C., read-out: Solubility) was < 1000 µg/mL and the solubility ([4]; organic solvent or mixture, thermodynamic from solid, ethyl formate, at 60° C., read-out: Solubility) was < 1000 µg/mL. The solubility ([4]; organic solvent or mixture, thermodynamic from solid, methanol (MeOH), at RT, read-out: Solubility) was 1000 µg/mL, the solubility ([4]; organic solvent or mixture, thermodynamic from solid, methyl ethyl ketone (MEK), at 60° C., read-out: Solubility) was < 1000 µg/mL and the solubility ([4]; organic solvent or mixture, thermodynamic from solid, tetrahydrofuran (THF), at 60° C., read-out: Solubility) was < 1000 µg/mL. For the same molecule, the “solubility in aqueous solvents with high water activities (qualitative)” value ([4]; polymorph screening by salt formation in situ) was “soluble”, the solubility ([4]; thermodynamic from solid, water, at 60° C., read-out: Solubility) was < 1000 µg/mL and the “KF-Oven % Water, Av” value ([5]; RT, 20% RH) was 1.23%. The “KF-Oven % Water, single determinations” value ([5]; RT, 20% RH) was 1.22% and 1.24%, the KF-Oven water ([5]; RT, 20% RH) was 0.7 mol/mol and the “XRPD Result” value ([5]; RT, 20% RH) was “Form A”. The “KF-Oven % Water, Av” value ([5]; RT, 39% RH) was 1.59%, the “KF-Oven % Water, single determinations” value ([5]; RT, 39% RH) was 1.67% and 1.50% and the KF-Oven water ([5]; RT, 39% RH) was 0.9 mol/mol. For the same molecule, the “XRPD Result” value ([5]; RT, 39% RH) was “Form A”, the “KF-Oven % Water, Av” value ([5]; RT, 58% RH) was 1.58% and the “KF-Oven % Water, single determinations” value ([5]; RT, 58% RH) was 1.53% and 1.63%. For the same molecule, the KF-Oven water ([5]; RT, 58% RH) was 0.9 mol/mol, the “XRPD Result” value ([5]; RT, 58% RH) was “Form A” and the “KF-Oven % Water, Av” value ([5]; RT, 75% RH) was 1.73%. The “KF-Oven % Water, single determinations” value ([5]; RT, 75% RH) was 1.82% and 1.63%, the KF-Oven water ([5]; RT, 75% RH) was 0.9 mol/mol and the “XRPD Result” value ([5]; RT, 75% RH) was “Form A”. The “KF-Oven % Water, Av” value ([5]; RT, 97% RH) was 3.86%, the “KF-Oven % Water, single determinations” value ([5]; RT, 97% RH) was 3.77% and 3.94% and the KF-Oven water ([5]; RT, 97% RH) was ~2.1 mol/mol. The “XRPD Result” value ([5]; RT, 97% RH) was “Form A”, the “KF-Oven % Water, Av” value ([5]; RT, ~0% RH) was 1.08% and the “KF-Oven % Water, single determinations” value ([5]; RT, ~0% RH) was 1.14% and 1.01%. The KF-Oven water ([5]; RT, ~0% RH) was 0.6 mol/mol, the “KF-Oven water (moles)” value ([5]; RT, ~0% RH) was “approximately 0.6 moles” and the “XRPD Result” value ([5]; RT, ~0% RH) was “Form A”. For the same molecule, the “water content in the relative humidity range 40-75% RH (Karl Fisher)” value ([5]; room temperature) was “approximately 0.9 moles”, the “changes by XRPD after storage at various relative humidity conditions” value ([5]; room temperature, 0 to 97% RH) was “no changes were observed” and the “DVS: water uptake in the range 40-75% RH” value [6] was “approximately 0.5%”. For the same molecule, the “DVS: weight gain up to 95% RH” value ([6]; 25° C.) was “approximately 4%”, the “DVS: hygroscopicity” value ([6]; 25° C., 5 to 95% RH) was “Moderately hygroscopic” and the “Post-DVS XRPD” value ([6]; material after sorption/desorption cycle) was “Unchanged; also recorded: consistent with Fumarate Salt Form A exhibiting some peak shifting at higher angles; also recorded: Form A, high angle peak shifting”. The “DVS: water absorbed over each of the RH ranges 5 to 35%; 35 to 85%; 85 to 95% RH” value ([6]; one third of the total uptake per range) was “Approximately 1%”, the “DVS: loss from 95 to 5% RH” value ([6]; ~800-mg scale lot) was 3% loss from 95 to 5% RH and the “DVS: loss upon drying at 5% RH” value ([6]; ~800-mg scale lot) was 0% loss upon drying at 5% RH. The “stability upon slurry in aqueous binary mixtures with high water activities (XRPD)” value ([7]; 50° C. for 1 week) was “appeared to be stable” and the “result of slurries in non-aqueous and some low water activity solvents (XRPD)” value ([7]; e.g., dioxane/water 95:5, aw 0.4) was “disordered/low crystalline materials”.

With `CN1CCN([C@@H]2CCCN(c3cnc(C(N)=O)c(Nc4ccc(C5CCN(CC6CCN(c7ccc(C(=O)N[C@H]8CCC(=O)NC8=O)nc7)CC6)CC5)cc4)n3)C2)C1=O` [Free Base Form B] the “Post-XRPD (150° C.)” value ([8]; heated on TGA to 150° C., listed as B) was “Free Base Form A”.

In the case of `CN1CCN([C@@H]2CCCN(c3cnc(C(N)=O)c(Nc4ccc(C5CCN(CC6CCN(c7ccc(C(=O)N[C@H]8CCC(=O)NC8=O)nc7)CC6)CC5)cc4)n3)C2)C1=O` [Succinate Salt Form B], the “form after stressing at 40° C./75% relative humidity (RH)” value ([2]; 1 week (FIG. 72)) was “converted back to Succinate Salt Form A”.

In the case of `CN1CCN([C@@H]2CCCN(c3cnc(C(N)=O)c(Nc4ccc(C5CCN(CC6CCN(c7ccc(C(=O)N[C@H]8CCC(=O)NC8=O)nc7)CC6)CC5)cc4)n3)C2)C1=O` [Free Base Form D], the “Post-XRPD (100° C.)” value ([8]; heated on TGA to 100° C., listed as D) was “Free Base Form D”.

For `CN1CCN([C@@H]2CCCN(c3cnc(C(N)=O)c(Nc4ccc(C5CCN(CC6CCN(c7ccc(C(=O)N[C@H]8CCC(=O)NC8=O)nc7)CC6)CC5)cc4)n3)C2)C1=O` [Free Base Form E], the “physical stability to stressing at 40° C./75% relative humidity (RH)” value [2] was “physically stable”.

— patent publication US20250136579A1, “SALTS AND FREE BASES OF BIFUNCTIONAL COMPOUND AND POLYMORPH FORMS THEREOF” (NURIX THERAPEUTICS, INC., priority 2023, published 2025)
